Reference: patent US11739122B2, “Glycopeptide antibiotic compounds, methods for producing the same, and uses thereof” (Academia Sinica, priority 2019, dated 2023)
Values after ≈ are worked out from the molar mass of the structure shown.

Legend:
S. aureus ATCC 29213 = test: MIC, broth microdilution; format: cell-based, Staphylococcus aureus; settings: SA ATCC 29213
Method in brief: (§1)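 Inoculum: 0.5 McFarland broth culture, adjusted to ~1×10^8 CFU mL^−1. Incubation 37° C, 18-24 h. Read-out: visible growth; MIC = concentration with no growth in well.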

MRSA ATCC BAA-39 = test: MIC, broth microdilution; format: cell-based, Staphylococcus aureus; settings: MRSA ATCC BAA-39
Method in brief: as §1

MRSA ATCC BAA-38 = test: MIC, broth microdilution; format: cell-based, Staphylococcus aureus; settings: MRSA ATCC BAA-38
Method in brief: as §1

MRSA ATCC 700787 VRSA = test: MIC, broth microdilution; format: cell-based, Staphylococcus aureus
Method in brief: as §1

MRSA ATCC 700698 hVISA = test: MIC, broth microdilution; format: cell-based, Staphylococcus aureus; settings: MRSA ATCC 700698 hVISA
Method in brief: as §1

MRSA ATCC BAA-44 = test: MIC, broth microdilution; format: cell-based, Staphylococcus aureus; settings: MRSA ATCC BAA-44
Method in brief: as §1

MRSA ATCC 700789 VRSA = test: MIC, broth microdilution; format: cell-based, Staphylococcus aureus; settings: MRSA ATCC 700789 VRSA
Method in brief: as §1

A. baumannii ATCC 19606 [1] = test: Inner membrane permeabilization, propidium iodide (PI); format: cell-based, Acinetobacter baumannii; settings: AB
Description: Membrane Permeabilization Assay
The inner membrane and outer membrane permeabilization was determined by propidium iodide (PI) and 1-N-Phenylnaphthylamine (NPN), respectively. MRSA (ATCC 700787) and A. baumannii (ATCC 19606) at mid-log phase were harvested, washed and resuspended in a solution containing 5 mM glucose and 5 mM HEPES at pH 7.2. For the inner membrane permeabilization, 150 μL cell suspension and 50 μL PI (10 μM) were added together and preincubated for 30 minutes or 60 minutes for MRSA or A. baumannii, respectively. For outer membrane permeabilization activity, 150 μL cell suspension and 50 μL NPN (10 μM) were added together and preincubated for 60 minutes. The change of fluorescence intensity was recorded for 8 minutes at 2 minute intervals with excitation and emission wavelength set at 535 nm and 617 nm, respectively for PI and with excitation and emission wavelength set at 350 nm of 420 nm, respectively, for NPN. When 5 μL of a given test compound was added in the solution, the fluorescence intensity was recorded for another 12 minutes.

VRE ATCC 700221 (vanA) = test: MIC, broth microdilution; format: cell-based, enterococci; settings: VRE ATCC 700221 (vanA)
Method in brief: as §1

VRE ATCC 700802 (vanB) = test: MIC, broth microdilution; format: cell-based, enterococci; settings: VRE ATCC 700802 (vanB)
Method in brief: as §1

VRE ATCC 700425 (vanC) = test: MIC, broth microdilution; format: cell-based, enterococci; settings: VRE ATCC 700425 (vanC)
Method in brief: as §1

MRSA ATCC 700787 = test: Thin-section TEM, cell wall morphology; format: cell-based, Staphylococcus aureus
Description: (§2) Thin-Section Transmission Electron Microscopy (TEM)
(§3) An overnight cultured MRSA ATCC 700787, VRE ATCC 700221 or A. baumannii ATCC 19606 was individually sub-cultured into a fresh medium. Bacteria at the exponential phase were treated with a given test compound at a concentration of 4×MIC for 1-4 hour at 37° C. and followed by wash and resuspension in PBS. Bacteria cells for the TEM analysis were prepared as follows: Cells were fixed with 2.5% glutaraldehyde for 30 minutes. After the fixation, cells were washed twice with PBS and fixed with 1% osmium tetraoxide for another 30 minutes. All the buffer was removed with distilled water. The cells were then stained with 1% uranyl acetate and dehydrated with a graded ethanol solution. Cells were embedded in resin. Finally, each sample was cut into thin slices of approximately 90 nm with a glass knife and stained with uranyl acetate. The images of bacterial morphological were recorded.
The cell wall/membrane apparently is the targets, while the extent of damage depends on what compound imposes on the strain. […] Cell wall thickening has been a common phenotype in clinical MRSA isolates, which may well be a phenotypic determinant for VRSA. The systemic cell-wall damage may account for the cell-wall biosynthesis crippled all over the cell surface in cell-wall thickening strains, thus leading cells to lysis as a result of the osmotic pressure of cytoplasm.

AB ATCC 19606 = test: Minimal bactericidal concentration (MBC); format: cell-based, Acinetobacter baumannii
Description: Minimal Bactericidal Concentration (MBC) Determination
The MBC test is an extension of the MIC examination. MBC was determined by performing subcultures on antibiotic-free agar from both the well where there was no visible growth at the MIC of a tested antibiotic and from the positive control well (with inoculum but without compounds). The plates were incubated at 37° C. for 18-24 hours. The MBC was taken as the lowest concentration of the test compound that results in more than 99.9% reduction of viable bacteria. If MBC was one or two dilutions above a given MIC value (MBC/MIC ratio was less than or equal to four), the antibiotic was considered bactericidal against the test organism.

A. baumannii ATCC 19606 [2] = test: MIC, broth microdilution; format: cell-based, Acinetobacter baumannii
Method in brief: as §1

[3] = tested on: VRE ATCC 700221 (vanA type); test: Thin-section TEM, cell wall morphology; format: cell-based, enterococci; settings: VRE ATCC700221, vanA type
Description: as §2, §3
The cell wall was almost intact but interspersed with holes, where cell fluids outflew leading cells to death. In general, VRE was immune to compound 1 or 2 (>256 μgmL^−1), median sensitive to compound 14 (32 μgmL^−1), but highly sensitive to compound 28 (4 μgmL^−1). […]

MIC (S. aureus ATCC 29213): 0.016 µg/mL (≈ 0.0108 µM) | MIC (MRSA ATCC BAA-39): 0.016 µg/mL (≈ 0.0108 µM) | MIC (MRSA ATCC BAA-38): 0.016 µg/mL (≈ 0.0108 µM) | MIC (MRSA ATCC 700787 VRSA; MRSA ATCC 700787, Table 4): 0.016 µg/mL (≈ 0.0108 µM) | MIC (MRSA ATCC 700787 VRSA; MRSA ATCC 700787 VRSA): 0.016 µg/mL (≈ 0.0108 µM) | MIC (MRSA ATCC 700698 hVISA): 0.016 µg/mL (≈ 0.0108 µM) | MIC (MRSA ATCC BAA-44): 0.016 µg/mL (≈ 0.0108 µM) | MIC (MRSA ATCC 700789 VRSA): 0.5 µg/mL (≈ 0.336 µM) | MIC (VRE ATCC 700221 (vanA)): >16 µg/mL | MIC (VRE ATCC 700802 (vanB)): 0.5 µg/mL (≈ 0.336 µM) | MIC (VRE ATCC 700425 (vanC)): 1 µg/mL (≈ 0.673 µM) | MIC (A. baumannii ATCC 19606 [2]; A. baumannii ATCC 19606, Table 3, first figure of cell): 50 µM | MIC (A. baumannii ATCC 19606 [2]; A. baumannii ATCC 19606, Table 3, second figure of cell): 74.22 µg/mL | MIC (A. baumannii ATCC 19606 [2]; AB ATCC 19606, Table 4): 74.22 µg/mL
SMILES: CCCCCCCC(=O)N[C@H]1[C@H](O[C@@H]2c3ccc(c(Cl)c3)Oc3cc4cc(c3O)Oc3ccc(cc3Cl)C[C@H]3NC(=O)[C@H](N)c5ccc(O)c(c5)Oc5cc(O)cc(c5)[C@H](NC3=O)C(=O)N[C@H]4C(=O)N[C@H]3C(=O)N[C@@H]2C(=O)N[C@H](C(=O)O)c2cc(O)cc(O)c2-c2cc3ccc2O)O[C@H](CO)[C@@H](O)[C@@H]1O [Compound 14, r6,N-octyl-Glc Tei]
inner (cytoplasmic) membrane permeabilization, PI (A. baumannii ATCC 19606 [1]): no activity | cell wall morphology by TEM (MRSA ATCC 700787): cell wall damage toward full cell lysis | MBC (AB ATCC 19606): 74.22 µg/mL (≈ 49.9 µM) | MBC/MIC (AB ATCC 19606): 1 | sensitivity of VRE to compound (concentration) [3]: 32 µg/mL
